Reference: paper PMC11784221, “Platelet factor 4-derived C15 peptide broadly inhibits enteroviruses by disrupting viral attachment” (Journal of Virology, 2025)
Where no end group is shown, it is not given here.

Legend:
[1] = C15 alone in neonatal mice without CA6 infection (toxicity); type: in vivo, ICR mice
Method: To investigate the anti-viral efficacy of C15 against CA6 in vivo, we established a lethal infection model using 1-day-old ICR mice. The mice were infected with CA6 at a concentration of 10^7 TCID50 and then treated with two different concentrations of C15 (1 and 5 mg/kg). The mice were monitored over a period of 7 days to assess various indicators (Fig. 7A). The mice in the control group, which received Dulbecco’s Modified Eagle Medium (DMEM) alone, began to succumb to the infection on day 4, with all mice dying by day 6. On day 6, the average clinical score of the mice in the control group was 5. […] Treatment with 1 mg/kg C15 improved survival rates by 60%, while 5 mg/kg C15 provided complete protection, achieving a 100% survival rate (Fig. 7D).
ICR pregnant specific pathogen-free mice were purchased from Beijing Vital River Laboratory. Pregnant mice gave birth approximately 5 days after arrival at the laboratory. One day-old ICR neonatal mice were used to establish the CA6 infection mouse model. The CA6 virus, at a concentration of 10^7 TCID50/mL, was mixed with varying concentrations of C15 (1 and 5 mg/kg) and intracranially injected into the 1 day-old neonatal mice (10 µL per mouse). Five experimental groups were designed, and observations of various indicators were conducted over the subsequent 7 days, as well as samples collected for analysis. […]

[2] = tested on: RD cells; conditions: 48 h treatment, CCK-8, absorbance 450 nm, n = 3
[3] = tested on: CA6; conditions: read-out: EC50 for CA6; RD cells, 48 h, intracellular VP1 mRNA by RT-qPCR vs GAPDH, three independent experiments, four-parameter fit
[4] = tested on: EVD68; conditions: read-out: EC50 for EVD68; RD cells, 48 h, intracellular VP1 mRNA by RT-qPCR vs GAPDH, three independent experiments, four-parameter fit
[5] = tested on: EV71; conditions: read-out: EC50 for EV71; RD cells, 48 h, intracellular VP1 mRNA by RT-qPCR vs GAPDH, three independent experiments, four-parameter fit
[6] = tested on: CA16; conditions: read-out: EC50 for CA16; RD cells, 48 h, intracellular VP1 mRNA by RT-qPCR vs GAPDH, three independent experiments, four-parameter fit
[7] = tested on: CA6; experiment: Purified PF4-His added to cells infected with CA6; type: cell-based, coxsackievirus A6; conditions: increasing doses of purified PF4-His, 48 h, Western blot, RT-qPCR, TCID50
Method: (§1) (A and B) HEK-293T cells transfected with cDNA-PF4-Myc or the VR1012 expression vector serving as a control. […] (C and D) Viral loads in the supernatant were evaluated by measuring VP1 gene mRNA levels using reverse transcription quantitative PCR (RT-qPCR). (E and H) PF4-His proteins expressed in Escherichia coli were added to the cell supernatant at the indicated concentration, and the cells were simultaneously infected with CA6 or EVD68. Cell lysates and supernatants (concentrated 100-fold) were collected at 48 h. Western blot was performed to detect the viral VP1 protein in the cells and supernatant, with tubulin serving as a loading control. (F and I) Intracellular mRNA levels of VP1 were determined by RT-qPCR, using GAPDH as a control. (G and J) 50% tissue culture infective dose (TCID50) assays were performed using supernatants collected from infected rhabdomyosarcoma cells at 48 h, containing various concentrations of PF4-His.
(§2) PF4 is a secreted protein. To further assess its anti-viral potential, PF4 proteins were expressed and purified from Escherichia coli. […]
(§3) The cDNA of PF4-His with His tag at the N-terminus was synthesized and inserted into PEXs-DH by Comate Bioscience Company and expressed in E. coli BL21-derived cells. […] The […] of the resulting proteins was determined through BCA Protein Assay Kits (Epizyme, #ZJ102L) analysis.

[8] = tested on: EVD68; experiment: Purified PF4-His added to cells infected with EVD68; type: cell-based, enterovirus D68; conditions: increasing doses of purified PF4-His, 48 h, Western blot, RT-qPCR, TCID50
Method: as §1, §2, §3

[9] = target: Coxsackievirus A6 (CA6) virion, strain changchun046/CHN/2013 (coxsackievirus A6)
[10] = target: Enterovirus D68 (EVD68) virion, strain US/KY/14-18953 (enterovirus D68)

Molecule: QAPLYKKIIKKLLES [C15]
- Toxicity in neonatal mice (clinical scores, body weight, survival rates versus DMEM control) ([1]; 5 mg/kg C15 without CA6 infection, intracranial, 1-day-old ICR mice): no toxicity
- VITT-related symptoms (weight loss, nosebleeds, gum bleeding, gastrointestinal bleeding) ([1]; injection of C15 alone in mice): did not result in VITT-related symptoms
- 50% cytotoxic concentration [2]: > 100 µM
- EC50 [3]: 3.12 nM
- EC50 [4]: 5.41 nM
- EC50 [5]: 5.36 nM
- EC50 [6]: 10 nM

B1: PF4-His: Platelet factor 4 with His tag at the N-terminus, expressed in E. coli and purified (protein)
chain: EAEEDGDLQCLCVKTTSQVRPRHITSLEVIKAGPHCPTAQLIATLKNGRKICLDLQAPLYKKIIKKLLES
modifications: left off: Myc, N-terminal, kept
notes: Platelet factor 4 with His tag at the N-terminus, expressed in E. coli and purified
- VP1 protein and mRNA levels of CA6 and viral titer in supernatant [7]: gradually decreased
- VP1 protein and mRNA levels of EVD68 and viral titer in supernatant [8]: gradually decreased

B2: C15 peptide (C-terminal 15 amino acids of PF4) (peptide)
peptide: QAPLYKKIIKKLLES
- EC50 of inhibition of CA6 replication in RD cells (intracellular VP1 mRNA by RT-qPCR, 48 h) [9]: 3.12 nM
- EC50 of inhibition of EVD68 replication in RD cells (intracellular VP1 mRNA by RT-qPCR, 48 h) [10]: 5.41 nM
